In ChEMBL document CHEMBL1909046, “DrugMatrix in vitro pharmacology data”:

Each compound was assayed against Sodium-dependent noradrenaline transporter (Homo sapiens, UniProt P23975) (assay: DRUGMATRIX: Norepinephrine Transporter radioligand binding (ligand: [125I] RTI-55)). Settings: mdck; Not Active = under 50% inhibition at 10 µM.
Sodium-dependent noradrenaline transporter, sequence (P23975 whole entry): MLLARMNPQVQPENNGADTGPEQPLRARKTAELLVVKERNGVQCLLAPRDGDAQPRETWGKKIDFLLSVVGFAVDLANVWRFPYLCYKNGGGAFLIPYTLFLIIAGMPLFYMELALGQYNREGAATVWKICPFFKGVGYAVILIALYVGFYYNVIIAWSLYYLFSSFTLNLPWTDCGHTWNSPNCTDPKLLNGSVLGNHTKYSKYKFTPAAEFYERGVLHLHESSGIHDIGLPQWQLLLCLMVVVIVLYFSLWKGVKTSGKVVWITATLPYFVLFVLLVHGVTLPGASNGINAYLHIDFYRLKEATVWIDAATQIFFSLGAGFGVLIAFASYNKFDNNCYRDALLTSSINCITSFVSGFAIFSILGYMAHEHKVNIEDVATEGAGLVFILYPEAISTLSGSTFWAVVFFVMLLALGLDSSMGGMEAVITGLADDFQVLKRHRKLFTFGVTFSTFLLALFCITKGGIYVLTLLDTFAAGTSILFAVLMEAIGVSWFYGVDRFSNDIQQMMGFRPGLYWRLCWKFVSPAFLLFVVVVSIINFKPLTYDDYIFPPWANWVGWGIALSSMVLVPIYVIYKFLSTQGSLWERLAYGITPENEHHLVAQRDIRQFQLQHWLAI
Assay type: cell membranes, MDCK, Membrane
For `Cc1ccnc(NS(=O)(=O)c2ccc(N)cc2)n1` [SULFAMERAZINE], the IC50 was “Not Active”.
For `CC(C)(C)NC[C@H](O)COc1cccc2c1CCCC2=O` [LEVOBUNOLOL], the IC50 was “Not Active”.
With `CC(=O)O[C@]1(C(C)=O)CC[C@H]2[C@@H]3C[C@H](C)C4=CC(=O)CC[C@]4(C)[C@H]3CC[C@@]21C` [MEDROXYPROGESTERONE ACETATE] the IC50 was “Not Active”.
`OC[C@@H](O)[C@@H](O)[C@H](O)[C@H](O)CO` [MANNITOL] was tested, and the IC50 was “Not Active”.
For `CC(Cl)(Cl)Cl` [TRICHLOROETHANE], the IC50 was “Not Active”.
In the case of LEAD(IV) ACETATE, the IC50 is reported as “Not Active” and the Ki is reported as “Not Active”.
`O=C(c1ccccc1)c1ccc2n1CCC2C(=O)O` (stereo unspecified) [KETOROLAC] was tested, and the IC50 was “Not Active”.

The compounds below were run against Cytochrome P450 2C9 (Homo sapiens, UniProt P11712). Settings: bti-tn-5b1-4.
Cytochrome P450 2C9, sequence (P11712 whole entry): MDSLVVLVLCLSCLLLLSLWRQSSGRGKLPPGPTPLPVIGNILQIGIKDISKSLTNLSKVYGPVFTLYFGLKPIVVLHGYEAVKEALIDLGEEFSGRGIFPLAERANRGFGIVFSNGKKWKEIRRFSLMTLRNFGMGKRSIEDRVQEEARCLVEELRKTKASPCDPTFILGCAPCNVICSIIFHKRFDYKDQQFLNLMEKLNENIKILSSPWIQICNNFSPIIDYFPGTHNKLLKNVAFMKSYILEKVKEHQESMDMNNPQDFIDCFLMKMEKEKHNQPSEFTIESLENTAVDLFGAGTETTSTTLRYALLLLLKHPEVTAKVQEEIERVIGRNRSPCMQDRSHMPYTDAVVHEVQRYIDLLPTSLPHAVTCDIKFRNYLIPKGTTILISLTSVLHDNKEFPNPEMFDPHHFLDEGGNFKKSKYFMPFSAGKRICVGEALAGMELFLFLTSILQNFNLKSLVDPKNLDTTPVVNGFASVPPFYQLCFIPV
In the case of `Cc1ccnc(NS(=O)(=O)c2ccc(N)cc2)n1` [SULFAMERAZINE], the IC50 is reported as “Not Active” and the Ki is reported as “Not Active”.
`CC(C)(C)NC[C@H](O)COc1cccc2c1CCCC2=O` [LEVOBUNOLOL] was tested, and the IC50 was “Not Active” and the Ki was “Not Active”.
In the case of `CC(=O)O[C@]1(C(C)=O)CC[C@H]2[C@@H]3C[C@H](C)C4=CC(=O)CC[C@]4(C)[C@H]3CC[C@@]21C` [MEDROXYPROGESTERONE ACETATE], the IC50 is reported as “Not Active” and the Ki is reported as “Not Active”.
For `OC[C@@H](O)[C@@H](O)[C@H](O)[C@H](O)CO` [MANNITOL], the IC50 was “Not Active” and the Ki was “Not Active”.
For `CC(Cl)(Cl)Cl` [TRICHLOROETHANE], the IC50 was “Not Active” and the Ki was “Not Active”.
In the case of LEAD(IV) ACETATE, the IC50 is reported as “Not Active” and the Ki is reported as “Not Active”.
In the case of `O=C(c1ccccc1)c1ccc2n1CCC2C(=O)O` (stereo unspecified) [KETOROLAC], the IC50 is reported as “Not Active” and the Ki is reported as “Not Active”.

The compounds below were run against Cytochrome P450 2D6 (Homo sapiens, UniProt P10635). Settings: bti-tn-5b1-4.
Cytochrome P450 2D6, sequence (P10635 whole entry): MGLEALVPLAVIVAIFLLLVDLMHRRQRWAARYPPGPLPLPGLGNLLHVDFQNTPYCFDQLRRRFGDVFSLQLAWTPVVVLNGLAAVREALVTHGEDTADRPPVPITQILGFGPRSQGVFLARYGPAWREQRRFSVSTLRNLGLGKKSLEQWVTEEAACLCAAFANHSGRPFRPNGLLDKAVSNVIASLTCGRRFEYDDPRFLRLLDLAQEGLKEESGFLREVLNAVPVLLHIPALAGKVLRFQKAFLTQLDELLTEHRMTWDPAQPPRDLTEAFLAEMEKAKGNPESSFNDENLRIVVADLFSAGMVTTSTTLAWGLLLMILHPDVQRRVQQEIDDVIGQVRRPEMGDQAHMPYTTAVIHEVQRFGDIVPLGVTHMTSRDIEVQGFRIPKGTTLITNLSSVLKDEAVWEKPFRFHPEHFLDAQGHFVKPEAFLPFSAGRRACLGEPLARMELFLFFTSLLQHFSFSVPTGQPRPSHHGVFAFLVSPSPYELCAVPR
`Cc1ccnc(NS(=O)(=O)c2ccc(N)cc2)n1` [SULFAMERAZINE] was tested, and the IC50 was “Not Active” and the Ki was “Not Active”.
With `CC(C)(C)NC[C@H](O)COc1cccc2c1CCCC2=O` [LEVOBUNOLOL] the IC50 was “Not Active” and the Ki was “Not Active”.
For `CC(=O)O[C@]1(C(C)=O)CC[C@H]2[C@@H]3C[C@H](C)C4=CC(=O)CC[C@]4(C)[C@H]3CC[C@@]21C` [MEDROXYPROGESTERONE ACETATE], the IC50 was “Not Active” and the Ki was “Not Active”.
`OC[C@@H](O)[C@@H](O)[C@H](O)[C@H](O)CO` [MANNITOL] was tested, and the IC50 was “Not Active” and the Ki was “Not Active”.
With `CC(Cl)(Cl)Cl` [TRICHLOROETHANE] the IC50 was “Not Active” and the Ki was “Not Active”.
For LEAD(IV) ACETATE, the IC50 was “Not Active” and the Ki was “Not Active”.
In the case of `O=C(c1ccccc1)c1ccc2n1CCC2C(=O)O` (stereo unspecified) [KETOROLAC], the IC50 is reported as “Not Active” and the Ki is reported as “Not Active”.

Each compound was assayed against T1, Cytochrome P450 2A6 (Homo sapiens, UniProt P11509). Settings: bti-tn-5b1-4.
T1 sequence (P11509 whole entry): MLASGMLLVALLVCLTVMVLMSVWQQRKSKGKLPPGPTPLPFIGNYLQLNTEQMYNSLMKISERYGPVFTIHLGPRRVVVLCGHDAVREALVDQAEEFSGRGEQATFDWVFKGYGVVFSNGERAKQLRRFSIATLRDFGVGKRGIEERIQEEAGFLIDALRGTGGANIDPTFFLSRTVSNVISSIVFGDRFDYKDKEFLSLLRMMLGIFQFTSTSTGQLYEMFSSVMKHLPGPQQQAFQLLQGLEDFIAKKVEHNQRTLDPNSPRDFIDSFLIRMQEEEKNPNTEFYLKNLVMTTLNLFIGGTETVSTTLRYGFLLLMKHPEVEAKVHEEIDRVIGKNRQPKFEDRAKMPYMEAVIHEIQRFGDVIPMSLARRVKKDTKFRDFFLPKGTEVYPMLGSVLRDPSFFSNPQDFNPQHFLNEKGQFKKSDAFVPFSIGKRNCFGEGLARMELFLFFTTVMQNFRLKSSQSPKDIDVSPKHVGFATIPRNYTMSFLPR
With `Cc1ccnc(NS(=O)(=O)c2ccc(N)cc2)n1` [SULFAMERAZINE] the IC50 was “Not Active” and the Ki was “Not Active”.
In the case of `CC(C)(C)NC[C@H](O)COc1cccc2c1CCCC2=O` [LEVOBUNOLOL], the IC50 is reported as “Not Active” and the Ki is reported as “Not Active”.
`CC(=O)O[C@]1(C(C)=O)CC[C@H]2[C@@H]3C[C@H](C)C4=CC(=O)CC[C@]4(C)[C@H]3CC[C@@]21C` [MEDROXYPROGESTERONE ACETATE] was tested, and the IC50 was “Not Active” and the Ki was “Not Active”.
For `OC[C@@H](O)[C@@H](O)[C@H](O)[C@H](O)CO` [MANNITOL], the IC50 was “Not Active” and the Ki was “Not Active”.
For `CC(Cl)(Cl)Cl` [TRICHLOROETHANE], the IC50 was “Not Active” and the Ki was “Not Active”.
In the case of LEAD(IV) ACETATE, the IC50 is reported as “Not Active” and the Ki is reported as “Not Active”.
In the case of `O=C(c1ccccc1)c1ccc2n1CCC2C(=O)O` (stereo unspecified) [KETOROLAC], the IC50 is reported as “Not Active” and the Ki is reported as “Not Active”.

The compounds below were run against T2, 5-hydroxytryptamine receptor 2C (Homo sapiens, UniProt P28335) (assay: DRUGMATRIX: Serotonin (5-Hydroxytryptamine) 5-HT2C radioligand binding (ligand: [3H] Mesulergine)). Settings: cho-k1; Not Active = under 50% inhibition at 10 µM.
T2 sequence (P28335 whole entry): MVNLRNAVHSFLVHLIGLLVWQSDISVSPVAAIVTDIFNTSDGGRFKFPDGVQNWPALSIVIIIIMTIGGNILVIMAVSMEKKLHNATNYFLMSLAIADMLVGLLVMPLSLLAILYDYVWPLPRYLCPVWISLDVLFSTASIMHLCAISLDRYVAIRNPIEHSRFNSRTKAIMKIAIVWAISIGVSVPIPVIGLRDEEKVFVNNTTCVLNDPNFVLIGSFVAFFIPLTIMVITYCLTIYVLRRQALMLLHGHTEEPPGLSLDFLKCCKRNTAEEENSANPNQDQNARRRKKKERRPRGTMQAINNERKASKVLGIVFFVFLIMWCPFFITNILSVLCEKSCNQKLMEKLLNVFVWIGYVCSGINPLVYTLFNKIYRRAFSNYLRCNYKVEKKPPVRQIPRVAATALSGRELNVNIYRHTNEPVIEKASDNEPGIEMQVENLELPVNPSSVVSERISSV
Assay type: cell membranes, CHO-K1, Membrane
For `Cc1ccnc(NS(=O)(=O)c2ccc(N)cc2)n1` [SULFAMERAZINE], the IC50 was “Not Active”.
With `CC(C)(C)NC[C@H](O)COc1cccc2c1CCCC2=O` [LEVOBUNOLOL] the IC50 was “Not Active”.
In the case of `CC(=O)O[C@]1(C(C)=O)CC[C@H]2[C@@H]3C[C@H](C)C4=CC(=O)CC[C@]4(C)[C@H]3CC[C@@]21C` [MEDROXYPROGESTERONE ACETATE], the IC50 is reported as “Not Active”.
In the case of `OC[C@@H](O)[C@@H](O)[C@H](O)[C@H](O)CO` [MANNITOL], the IC50 is reported as “Not Active”.
For `CC(Cl)(Cl)Cl` [TRICHLOROETHANE], the IC50 was “Not Active”.
For LEAD(IV) ACETATE, the IC50 was “Not Active” and the Ki was “Not Active”.
`O=C(c1ccccc1)c1ccc2n1CCC2C(=O)O` (stereo unspecified) [KETOROLAC] was tested, and the IC50 was “Not Active”.

Each compound was assayed against Cytochrome P450 3A4 (Homo sapiens, UniProt P08684). Settings: bti-tn-5b1-4.
Cytochrome P450 3A4, sequence (P08684 whole entry): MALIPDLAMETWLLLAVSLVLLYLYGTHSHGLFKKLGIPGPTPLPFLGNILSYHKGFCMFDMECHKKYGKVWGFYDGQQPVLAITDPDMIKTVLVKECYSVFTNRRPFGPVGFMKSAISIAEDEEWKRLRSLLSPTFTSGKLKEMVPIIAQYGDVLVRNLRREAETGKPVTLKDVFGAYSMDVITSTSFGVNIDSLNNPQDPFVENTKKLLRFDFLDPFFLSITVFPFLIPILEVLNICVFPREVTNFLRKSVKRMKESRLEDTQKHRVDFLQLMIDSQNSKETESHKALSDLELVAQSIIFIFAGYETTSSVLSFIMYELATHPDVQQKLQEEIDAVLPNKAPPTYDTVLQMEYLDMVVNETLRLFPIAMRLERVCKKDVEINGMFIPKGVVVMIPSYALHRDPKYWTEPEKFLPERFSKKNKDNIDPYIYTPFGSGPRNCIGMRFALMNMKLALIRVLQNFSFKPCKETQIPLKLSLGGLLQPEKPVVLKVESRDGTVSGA
With `Cc1ccnc(NS(=O)(=O)c2ccc(N)cc2)n1` [SULFAMERAZINE] the IC50 was “Not Active” and the Ki was “Not Active”.
For `CC(C)(C)NC[C@H](O)COc1cccc2c1CCCC2=O` [LEVOBUNOLOL], the IC50 was “Not Active” and the Ki was “Not Active”.
`CC(=O)O[C@]1(C(C)=O)CC[C@H]2[C@@H]3C[C@H](C)C4=CC(=O)CC[C@]4(C)[C@H]3CC[C@@]21C` [MEDROXYPROGESTERONE ACETATE] was tested, and the IC50 was “Not Active” and the Ki was “Not Active”.
With `OC[C@@H](O)[C@@H](O)[C@H](O)[C@H](O)CO` [MANNITOL] the IC50 was “Not Active” and the Ki was “Not Active”.
With `CC(Cl)(Cl)Cl` [TRICHLOROETHANE] the IC50 was “Not Active” and the Ki was “Not Active”.
With LEAD(IV) ACETATE the IC50 was “Not Active” and the Ki was “Not Active”.
`O=C(c1ccccc1)c1ccc2n1CCC2C(=O)O` (stereo unspecified) [KETOROLAC] was tested, and the IC50 was “Not Active” and the Ki was “Not Active”.

The compounds below were run against T3, Cytochrome P450 1A2 (Homo sapiens, UniProt P05177). Settings: bti-tn-5b1-4.
T3 sequence (P05177 whole entry): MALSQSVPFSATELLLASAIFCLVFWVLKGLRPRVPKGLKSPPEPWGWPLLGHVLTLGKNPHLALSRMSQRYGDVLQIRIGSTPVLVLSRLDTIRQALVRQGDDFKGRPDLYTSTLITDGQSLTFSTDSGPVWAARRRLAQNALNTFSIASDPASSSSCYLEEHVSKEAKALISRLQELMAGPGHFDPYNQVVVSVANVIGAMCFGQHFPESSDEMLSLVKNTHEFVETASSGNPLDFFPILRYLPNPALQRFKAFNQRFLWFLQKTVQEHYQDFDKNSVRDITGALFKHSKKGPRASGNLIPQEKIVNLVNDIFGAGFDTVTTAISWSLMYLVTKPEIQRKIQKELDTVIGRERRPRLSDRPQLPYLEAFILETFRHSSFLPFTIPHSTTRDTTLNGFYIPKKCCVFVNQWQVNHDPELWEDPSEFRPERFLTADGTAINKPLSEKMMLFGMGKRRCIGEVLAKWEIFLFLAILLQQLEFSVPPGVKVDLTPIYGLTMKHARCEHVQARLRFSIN
For `Cc1ccnc(NS(=O)(=O)c2ccc(N)cc2)n1` [SULFAMERAZINE], the IC50 was “Not Active” and the Ki was “Not Active”.
`CC(C)(C)NC[C@H](O)COc1cccc2c1CCCC2=O` [LEVOBUNOLOL] was tested, and the IC50 was “Not Active” and the Ki was “Not Active”.
`CC(=O)O[C@]1(C(C)=O)CC[C@H]2[C@@H]3C[C@H](C)C4=CC(=O)CC[C@]4(C)[C@H]3CC[C@@]21C` [MEDROXYPROGESTERONE ACETATE] was tested, and the IC50 was “Not Active” and the Ki was “Not Active”.
With `OC[C@@H](O)[C@@H](O)[C@H](O)[C@H](O)CO` [MANNITOL] the IC50 was “Not Active” and the Ki was “Not Active”.
`CC(Cl)(Cl)Cl` [TRICHLOROETHANE] was tested, and the IC50 was “Not Active” and the Ki was “Not Active”.
LEAD(IV) ACETATE was tested, and the IC50 was “Not Active” and the Ki was “Not Active”.
With `O=C(c1ccccc1)c1ccc2n1CCC2C(=O)O` (stereo unspecified) [KETOROLAC] the IC50 was “Not Active” and the Ki was “Not Active”.
